Assay results taken from ChEMBL document CHEMBL1201861, “Genomics of Drug Sensitity in Cancer screening data, Wellcome Trust Sanger Institute”.

How the values were obtained:
Assay in all cases: cells
Ca9-22 = type: functional, cell-based; settings: Homo sapiens;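 also: growth inhibition of Ca9-22 cells, read out with a cell viability assay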
Description: SANGER: Inhibition of human Ca9-22 cell growth in a cell viability assay.

D-336MG = type: functional, cell-based; settings: Homo sapiens
Description: SANGER: Inhibition of human D-336MG cell growth in a cell viability assay.

DBTRG-05MG = type: functional, cell-based; settings: Homo sapiens;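 also: cell viability assay measuring growth inhibition of human DBTRG-05MG cells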
Description: SANGER: Inhibition of human DBTRG-05MG cell growth in a cell viability assay.

FaDu = type: functional, cell-based; settings: Homo sapiens;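 also: cell viability readout of growth inhibition in FaDu cells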
Description: SANGER: Inhibition of human FADU cell growth in a cell viability assay.

FTC-133 = type: functional, cell-based; settings: Homo sapiens
GAMG = type: functional, cell-based; settings: Homo sapiens;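 also: cell growth inhibition measured by a viability assay in the GAMG human cell line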
Description: SANGER: Inhibition of human GAMG cell growth in a cell viability assay.

GCT = type: functional, cell-based; settings: Homo sapiens;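 also: GCT cell line proliferation inhibition, read out with a cell viability assay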
Description: SANGER: Inhibition of human GCT cell growth in a cell viability assay.

HCC1395 = type: functional, cell-based; settings: Homo sapiens;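 also: growth inhibition of HCC1395 cells, read out by a cell viability assay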
Description: SANGER: Inhibition of human HCC1395 cell growth in a cell viability assay.

HCC1806 = type: functional, cell-based; settings: Homo sapiens;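 also: growth inhibition of the cancer cell line, determined with a cell viability assay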
Description: SANGER: Inhibition of human HCC1806 cell growth in a cell viability assay.

HGC-27 = type: functional, cell-based; settings: Homo sapiens;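 also: growth inhibition of human HGC-27 cells, read out in a cell viability assay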
Description: SANGER: Inhibition of human HGC-27 cell growth in a cell viability assay.

HT-1080 = type: functional, cell-based; settings: Homo sapiens
Description: SANGER: Inhibition of human HT-1080 cell growth in a cell viability assay.

HT1197 = type: functional, cell-based, HT-1197; settings: Homo sapiens
Description: SANGER: Inhibition of human HT-1197 cell growth in a cell viability assay.

KYSE-180 = type: functional, cell-based; settings: Homo sapiens;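 also: growth inhibition of KYSE-180 cells, read out with a cell viability assay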
Description: SANGER: Inhibition of human KYSE-180 cell growth in a cell viability assay.

KYSE-70 cell line = type: functional, cell-based; settings: Homo sapiens;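 also: cell viability assay read-out, with IC50 expressing suppression of KYSE-70 cell growth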
Description: SANGER: Inhibition of human KYSE-70 cell growth in a cell viability assay.

LCLC-103H cell line = type: functional, cell-based; settings: Homo sapiens
Description: SANGER: Inhibition of human LCLC-103H cell growth in a cell viability assay.

LCLC-97TM1 = type: functional, cell-based; settings: Homo sapiens;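 also: cell viability assay measuring growth inhibition of human LCLC-97TM1 cells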
Description: SANGER: Inhibition of human LCLC-97TM1 cell growth in a cell viability assay.

LoVo = type: functional, cell-based; settings: Homo sapiens;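 also: growth inhibition of human LoVo cells, read out with a cell viability assay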
Description: SANGER: Inhibition of human LoVo cell growth in a cell viability assay.

MDA-MB-157 = type: functional, cell-based; settings: Homo sapiens
Description: SANGER: Inhibition of human MDA-MB-157 cell growth in a cell viability assay.

MHH-ES-1 = type: functional, cell-based; settings: Homo sapiens;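 also: cell growth inhibition measured by a cell viability assay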
Description: SANGER: Inhibition of human MHH-ES-1 cell growth in a cell viability assay.

MKN-45 = type: functional, cell-based; settings: Homo sapiens;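 also: growth inhibition of human MKN-45 cells, measured with a cell viability assay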
Description: SANGER: Inhibition of human MKN45 cell growth in a cell viability assay.

MOLT-13 = type: functional, cell-based; settings: Homo sapiens;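 also: IC50 for suppression of MOLT-13 cell growth, read out with a cell viability assay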
Description: SANGER: Inhibition of human MOLT-13 cell growth in a cell viability assay.

MeWo = type: functional, cell-based; settings: Homo sapiens;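 also: growth inhibition of MeWo cells, determined by a cell viability readout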
Description: SANGER: Inhibition of human Mewo cell growth in a cell viability assay.

NB12 = type: functional, cell-based; settings: Homo sapiens;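 also: growth inhibition of human NB12 cells, read out by a cell viability assay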
Description: SANGER: Inhibition of human NB12 cell growth in a cell viability assay.

NB14 = type: functional, cell-based; settings: Homo sapiens;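 also: growth inhibition of NB14 cells measured with a cell viability assay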
Description: SANGER: Inhibition of human NB14 cell growth in a cell viability assay.

NCI-H2228 = type: functional, cell-based; settings: Homo sapiens;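 also: growth inhibition of human NCI-H2228 cells, read out by a cell viability assay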
Description: SANGER: Inhibition of human NCI-H2228 cell growth in a cell viability assay.

NY = type: functional, cell-based; settings: Homo sapiens
Description: SANGER: Inhibition of human NY cell growth in a cell viability assay.

OE19 = type: functional, cell-based; settings: Homo sapiens;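 also: growth inhibition of OE19 cells, measured through a cell viability read-out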
Description: SANGER: Inhibition of human OE19 cell growth in a cell viability assay.

OE33 = type: functional, cell-based; settings: Homo sapiens;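 also: growth inhibition of human OE33 cells, measured by a cell viability assay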
Description: SANGER: Inhibition of human OE33 cell growth in a cell viability assay.

PANC-08-13 = type: functional, cell-based; settings: Homo sapiens;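 also: cell growth inhibition, measured with a cell viability assay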
Description: SANGER: Inhibition of human PANC-08-13 cell growth in a cell viability assay.

Panc1005 = type: functional, cell-based; settings: Homo sapiens;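 also: growth inhibition of human PANC-10-05 cells, measured by a cell viability assay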
Description: SANGER: Inhibition of human PANC-10-05 cell growth in a cell viability assay.

RO82-W-1 = type: functional, cell-based; settings: Homo sapiens;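 also: growth inhibition of human RO82-W-1 cells, measured with a cell viability assay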
Description: SANGER: Inhibition of human RO82-W-1 cell growth in a cell viability assay.

SCC-25 = type: functional, cell-based; settings: Homo sapiens;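 also: growth inhibition of SCC-25 cells, measured with a cell viability assay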
Description: SANGER: Inhibition of human SCC-25 cell growth in a cell viability assay.

SK-MES-1 = type: functional, cell-based; settings: Homo sapiens;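 also: growth inhibition of human SK-MES-1 cells, read out with a cell viability assay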
Description: SANGER: Inhibition of human SK-MES-1 cell growth in a cell viability assay.

SW1783 = type: functional, cell-based; settings: Homo sapiens;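 also: cell growth inhibition measured with a viability assay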
Description: SANGER: Inhibition of human SW1783 cell growth in a cell viability assay.

T-24 = type: functional, cell-based; settings: Homo sapiens;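 also: growth inhibition of T-24 cells, read out with a cell viability assay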
Description: SANGER: Inhibition of human T-24 cell growth in a cell viability assay.

CWR22R = type: functional, cell-based; settings: Homo sapiens, 22Rv1;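 also: growth inhibition of 22Rv1 cells, read out with a cell viability assay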
Description: SANGER: Inhibition of human 22RV1 cell growth in a cell viability assay.

A204 = type: functional, cell-based; settings: Homo sapiens;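 also: growth inhibition of human A204 cells, read out with a cell viability assay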
Description: SANGER: Inhibition of human A204 cell growth in a cell viability assay.

ABC-1 = type: functional, cell-based; settings: Homo sapiens;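 also: growth inhibition of human ABC-1 cells, read out by a cell viability assay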
Description: SANGER: Inhibition of human ABC-1 cell growth in a cell viability assay.

BFTC-905 = type: functional, cell-based; settings: Homo sapiens
Description: SANGER: Inhibition of human BFTC-905 cell growth in a cell viability assay.

BPH-1 = type: functional, cell-based; settings: Homo sapiens;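 also: cell viability assay measuring growth inhibition of human BPH-1 cells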
Description: SANGER: Inhibition of human BPH-1 cell growth in a cell viability assay.

CAL-27 = type: functional, cell-based; settings: Homo sapiens;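 also: Viability-based readout, IC50 reflecting inhibition of CAL-27 cell growth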
Description: SANGER: Inhibition of human CAL-27 cell growth in a cell viability assay.

UACC-62 = type: functional, cell-based; settings: Homo sapiens;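 also: growth inhibition of human UACC-62 cells, read out by a cell viability assay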
Description: SANGER: Inhibition of human UACC-62 cell growth in a cell viability assay.

UMUC3 = type: functional, cell-based; settings: Homo sapiens;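 also: growth inhibition of human UM-UC-3 cells, read out with a cell viability assay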
Description: SANGER: Inhibition of human UM-UC-3 cell growth in a cell viability assay.

UMC-11 = type: functional, cell-based; settings: Homo sapiens;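 also: growth inhibition of UMC-11 cells, read out with a cell viability assay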
Description: SANGER: Inhibition of human UMC-11 cell growth in a cell viability assay.

COLO-741 = type: functional, cell-based; settings: Homo sapiens
Description: SANGER: Inhibition of human COLO-741 cell growth in a cell viability assay.

COR-L105 = type: functional, cell-based; settings: Homo sapiens;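 also: cell growth inhibition determined with a viability assay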
Description: SANGER: Inhibition of human COR-L105 cell growth in a cell viability assay.

Capan-2 = type: functional, cell-based; settings: Homo sapiens;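 also: Capan-2 cell growth inhibition, read out with a viability assay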
Description: SANGER: Inhibition of human Capan-2 cell growth in a cell viability assay.

ChaGo-K-1 = type: functional, cell-based; settings: Homo sapiens;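 also: growth inhibition of ChaGo-K-1 cells, read out with a cell viability assay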
Description: SANGER: Inhibition of human ChaGo-K-1 cell growth in a cell viability assay.

HCC1599 = type: functional, cell-based; settings: Homo sapiens;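 also: growth inhibition of HCC1599 cells, read out in a cell viability assay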
Description: SANGER: Inhibition of human HCC1599 cell growth in a cell viability assay.

HCC1937 = type: functional, cell-based; settings: Homo sapiens;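 also: growth inhibition measured with a cell viability read-out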
Description: SANGER: Inhibition of human HCC1937 cell growth in a cell viability assay.

Hs-578T = type: functional, cell-based; settings: Homo sapiens
Description: SANGER: Inhibition of human Hs-578-T cell growth in a cell viability assay.

IST-SL2 = type: functional, cell-based; settings: Homo sapiens;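 also: growth inhibition of human IST-SL2 cells, read out by a cell viability assay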
Description: SANGER: Inhibition of human IST-SL2 cell growth in a cell viability assay.

LB647-SCLC = type: functional, cell-based; settings: Homo sapiens;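 also: cell growth inhibition, read out by a viability assay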
Description: SANGER: Inhibition of human LB647-SCLC cell growth in a cell viability assay.

LU-165 = type: functional, cell-based; settings: Homo sapiens
Description: SANGER: Inhibition of human LU-165 cell growth in a cell viability assay.

MC-CAR = type: functional, cell-based; settings: Homo sapiens;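 also: growth inhibition of the human MC-CAR cell line, read out by a cell viability assay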
Description: SANGER: Inhibition of human MC-CAR cell growth in a cell viability assay.

MKN-7 = type: functional, cell-based; settings: Homo sapiens;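 also: growth inhibition of MKN-7 cells, read out with a cell viability assay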
Description: SANGER: Inhibition of human MKN7 cell growth in a cell viability assay.

MONO-MAC-6 = type: functional, cell-based; settings: Homo sapiens;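 also: cell viability assay measuring growth inhibition of human MONO-MAC-6 cells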
Description: SANGER: Inhibition of human MONO-MAC-6 cell growth in a cell viability assay.

NCI-H1563 = type: functional, cell-based; settings: Homo sapiens;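 also: growth inhibition of human NCI-H1563 cells, read out with a cell viability assay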
Description: SANGER: Inhibition of human NCI-H1563 cell growth in a cell viability assay.

NCI-H1573 = type: functional, cell-based; settings: Homo sapiens;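 also: growth inhibition of NCI-H1573 cells, read out with a cell viability assay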
Description: SANGER: Inhibition of human NCI-H1573 cell growth in a cell viability assay.

NCI-H2171 = type: functional, cell-based; settings: Homo sapiens;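 also: growth inhibition of human NCI-H2171 cells, read out by a cell viability assay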
Description: SANGER: Inhibition of human NCI-H2171 cell growth in a cell viability assay.

NCI-H322M = type: functional, cell-based; settings: Homo sapiens;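 also: cell viability assay measuring inhibition of growth of human NCI-H322M cells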
Description: SANGER: Inhibition of human NCI-H322M cell growth in a cell viability assay.

NCI-H345 = type: functional, cell-based; settings: Homo sapiens
Description: SANGER: Inhibition of human NCI-H345 cell growth in a cell viability assay.

NCI-H520 = type: functional, cell-based; settings: Homo sapiens
Description: SANGER: Inhibition of human NCI-H520 cell growth in a cell viability assay.

CAL-148 = type: functional, cell-based; settings: Homo sapiens
Description: SANGER: Inhibition of human CAL-148 cell growth in a cell viability assay.

YT = type: functional, cell-based; settings: Homo sapiens
Description: SANGER: Inhibition of human YT cell growth in a cell viability assay.

CC[C@@]1(O)C(=O)OCc2c1cc1n(c2=O)Cc2cc3ccccc3nc2-1 [CAMPTOTHECIN]
IC50 (Ca9-22): 2.21 nM
IC50 (D-336MG): 5.2 nM
IC50 (DBTRG-05MG): 40.9 nM
IC50 (FaDu): 0.539 nM
IC50 (FTC-133): 4.57 nM
IC50 (GAMG): 1.53 nM
IC50 (GCT): 5.02 nM
IC50 (HCC1395): > 100 nM
IC50 (HCC1806): 3.14 nM
IC50 (HGC-27): 4.07 nM
IC50 (HT-1080): 0.394 nM
IC50 (HT1197): > 100 nM
IC50 (KYSE-180): 13.2 nM
IC50 (KYSE-70 cell line): 92.1 nM
IC50 (LCLC-103H cell line): 20.5 nM
IC50 (LCLC-97TM1): 8.14 nM
IC50 (LoVo): 14.9 nM
IC50 (MDA-MB-157): 7.57 nM
IC50 (MHH-ES-1): 0.129 nM
IC50 (MKN-45): 27.5 nM
IC50 (MOLT-13): 1.79 nM
IC50 (MeWo): 47 nM
IC50 (NB12): 44 nM
IC50 (NB14): 0.907 nM
IC50 (NCI-H2228): 49 nM
IC50 (NY): > 100 nM
IC50 (OE19): > 100 nM
IC50 (OE33): 25.6 nM
IC50 (PANC-08-13): 44.9 nM
IC50 (Panc1005): 19.7 nM
IC50 (RO82-W-1): 14.9 nM
IC50 (SCC-25): 56.7 nM
IC50 (SK-MES-1): 10.8 nM
IC50 (SW1783): 24.6 nM
IC50 (T-24): 1.61 nM
IC50 (CWR22R): 9.31 nM
IC50 (A204): 4.52 nM
IC50 (ABC-1): 3.47 nM
IC50 (BFTC-905): 0.14 nM
IC50 (BPH-1): 2.08 nM
IC50 (CAL-27): 2.02 nM
IC50 (UACC-62): 31 nM
IC50 (UMUC3): 3.09 nM
IC50 (UMC-11): > 100 nM

CO[C@@]12[C@H](COC(N)=O)C3=C(C(=O)C(C)=C(N)C3=O)N1C[C@@H]1N[C@@H]12 [MITOMYCIN]
IC50 (COLO-741): 2200 nM
IC50 (COR-L105): 1610 nM
IC50 (Ca9-22): 156 nM
IC50 (Capan-2): 2790 nM
IC50 (ChaGo-K-1): 1910 nM
IC50 (DBTRG-05MG): 570 nM
IC50 (FaDu): 128 nM
IC50 (FTC-133): 517 nM
IC50 (GAMG): 428 nM
IC50 (GCT): 4600 nM
IC50 (HCC1395): 1060 nM
IC50 (HCC1599): 120 nM
IC50 (HCC1806): 135 nM
IC50 (HCC1937): 594 nM
IC50 (HGC-27): 49.3 nM
IC50 (HT-1080): 354 nM
IC50 (HT1197): 2020 nM
IC50 (Hs-578T): 6200 nM
IC50 (IST-SL2): 388 nM
IC50 (KYSE-180): 202 nM
IC50 (KYSE-70 cell line): 224 nM
IC50 (LB647-SCLC): 336 nM
IC50 (LCLC-103H cell line): 461 nM
IC50 (LCLC-97TM1): 139 nM
IC50 (LU-165): 513 nM
IC50 (LoVo): 431 nM
IC50 (MC-CAR): 161 nM
IC50 (MDA-MB-157): 2190 nM
IC50 (MHH-ES-1): 16.3 nM
IC50 (MKN-45): 165 nM
IC50 (MKN-7): > 16000 nM
IC50 (MONO-MAC-6): 72.4 nM
IC50 (MeWo): 9550 nM
IC50 (NB12): 1200 nM
IC50 (NCI-H1563): 1430 nM
IC50 (NCI-H1573): 1460 nM
IC50 (NCI-H2171): 1500 nM
IC50 (NCI-H2228): < 62.5 nM
IC50 (NCI-H322M): 1800 nM
IC50 (NCI-H345): 4730 nM
IC50 (NCI-H520): 169 nM
IC50 (NY): 657 nM
IC50 (OE19): 365 nM
IC50 (OE33): 338 nM
IC50 (PANC-08-13): 2400 nM
IC50 (Panc1005): 73.7 nM
IC50 (RO82-W-1): 13300 nM
IC50 (SCC-25): 870 nM
IC50 (SK-MES-1): 51.1 nM
IC50 (SW1783): 38.6 nM
IC50 (T-24): 246 nM
IC50 (CWR22R): 144 nM
IC50 (A204): 84.2 nM
IC50 (ABC-1): 61.2 nM
IC50 (BFTC-905): 92.7 nM
IC50 (BPH-1): 29.9 nM
IC50 (CAL-148): 17.8 nM
IC50 (CAL-27): 41.2 nM
IC50 (UACC-62): 2160 nM
IC50 (UMUC3): 102 nM
IC50 (UMC-11): 567 nM
IC50 (YT): 463 nM

C/C=C(/C)C(=O)O[C@H]1C(C)=C2[C@H]([C@@H]1OC(=O)CCCCCCC)[C@@](C)(OC(C)=O)C[C@H](OC(=O)CCC)[C@@]1(O)[C@H]2OC(=O)[C@@]1(C)O [THAPSIGARGIN]
IC50 (COLO-741): 10.9 nM
IC50 (COR-L105): 11.5 nM
IC50 (Ca9-22): 22.8 nM
IC50 (Capan-2): < 2 nM
IC50 (ChaGo-K-1): 3.29 nM
IC50 (DBTRG-05MG): 11.7 nM
IC50 (FaDu): 169 nM
IC50 (FTC-133): > 512 nM
IC50 (GAMG): 8.86 nM
IC50 (GCT): 5.3 nM
IC50 (HCC1395): 3.15 nM
IC50 (HCC1599): 194 nM
IC50 (HCC1806): 2.4 nM
IC50 (HCC1937): 0.927 nM
IC50 (HGC-27): < 2 nM
IC50 (HT-1080): < 2 nM
IC50 (HT1197): > 512 nM
IC50 (Hs-578T): > 512 nM
IC50 (IST-SL2): 6.76 nM
IC50 (KYSE-180): 1.16 nM
IC50 (KYSE-70 cell line): < 2 nM
IC50 (LB647-SCLC): 4.86 nM
IC50 (LCLC-103H cell line): < 2 nM
IC50 (LCLC-97TM1): < 2 nM
IC50 (LU-165): > 512 nM
IC50 (LoVo): 10.4 nM
IC50 (MC-CAR): 24.4 nM
IC50 (MDA-MB-157): > 512 nM
IC50 (MHH-ES-1): 4.18 nM
IC50 (MKN-45): 25.4 nM
IC50 (MKN-7): > 512 nM
IC50 (MONO-MAC-6): 3.8 nM
IC50 (MeWo): > 512 nM
IC50 (NB12): 13.2 nM
IC50 (NCI-H1563): 199 nM
IC50 (NCI-H1573): 1.62 nM
IC50 (NCI-H2171): 12.5 nM
IC50 (NCI-H2228): 8 nM
IC50 (NCI-H322M): > 512 nM
IC50 (NCI-H345): 37 nM
IC50 (NCI-H520): < 2 nM
IC50 (NY): < 2 nM
IC50 (OE19): 36.5 nM
IC50 (OE33): 46.9 nM
IC50 (PANC-08-13): 23.8 nM
IC50 (Panc1005): 26.1 nM
IC50 (RO82-W-1): > 512 nM
IC50 (SCC-25): 9.71 nM
IC50 (SK-MES-1): < 2 nM
IC50 (SW1783): 9.24 nM
IC50 (T-24): 12.3 nM
IC50 (CWR22R): 1.17 nM
IC50 (A204): 17.3 nM
IC50 (ABC-1): 3.19 nM
IC50 (BFTC-905): 0.662 nM
IC50 (BPH-1): 0.6 nM
IC50 (CAL-148): > 512 nM
IC50 (CAL-27): < 2 nM
IC50 (UACC-62): 66.4 nM
IC50 (UMUC3): 1.21 nM
IC50 (UMC-11): 9.15 nM
IC50 (YT): 13.1 nM
